Read-outs that look alike come from different tables or passages of the source. Ends that are not written are not given here.
Key:
Format in all cases: cell-based
enterococci = assay: Effect of medium constituents and peptides on growth of enterococci; settings: for base requirements of the enterococci: supplied as precursors; for growth: addition of peptides to the medium
Source text: It is moreover known to affect the activity of the sulfamides and trimethoprim family (Then R. et al., Mecanisme moleculaire de la bactericidie; sulfamides et trimethoprime [Molecular mechanism of bactericidal activity; sulfamides and trimethoprim]. Bactericidie 1990, Editions Maloine, Paris).
The purine and pyrimidine bases can be supplied in several forms, that is to say in the form of precursors, of free bases, of nucleosides or of nucleotides. […] The proportions between purines and pyrimidines were defined in relation to those described for the synthesis of RNA by Neidhart (Neidhart et al. (1990) Physiology of the bacterial cell. A molecular approach. Sinauer associates, inc. U.S.A.), taking account of the absence of thymidine, that is to say purines/pyrimidines in a ratio of between 1.5 and 2.2 and advantageously of 1.8. The final concentrations were then optimized essentially to satisfy the growth of the staphylococci and of the enterococci.

[1] = tested on: non-saccharolytic species, such as Alcaligenes faecalis and Pseudomonas acidovorans; assay: Effect of L-malic acid on growth (FIG. 10); settings: 500 mg/l in FIG. 10
Experimental: (§1) The carbon sources of the medium of the invention are mainly represented by a sugar, preferably D-glucose, and an organic acid, in particular L-malic acid. D-glucose has been retained, taking account of its utilization by a large number of bacterial species with fermentative or non-fermentative metabolism (Stanier R. Y. et al. (1966) The aerobic Pseudomonas: a taxonomic study. J. Gen. Microbiol. 43: 159-271). Its concentration in the medium of the invention was determined to obtain a biomass close to that obtained with the reference Mueller-Hinton medium. […] The respective concentrations of D-glucose and L-malic acid were determined to correspond to the qualities of Mueller-Hinton.

Pseudomonas aeruginosa = assay: Effect of L-malic acid on growth (FIG. 11); settings: 500 mg/l in FIG. 11
Experimental: FIGS. 11 illustrates the effect of L-malic acid on the growth of Pseudomonas aeruginosa, curve a corresponding to the growth obtained with an IST medium devoid of L-malic acid and curve b after addition of a concentration of 500 mg/l of L-malic acid.
as §1

[2] = tested on: Proteus, Morganella, Providencia and Serratia; assay: Effect of polyamines on growth; settings: preferential concentration 0.75 mg/l
Experimental: The polyamines are present in the eukaryotic and prokaryotic cells and participate in numerous biological reactions including the synthesis of nucleic acids and of proteins (see Tabor C. W. and Tabor H. (1985) Polyamines in Microorganisms, Microbiol. Rev. 49: 81-99). Putrescine, spermine and spermidine were tested. […] FIG. 7 illustrates the effect of spermidine on the growth of Proteus mirabilis.

E. coli = assay: microbe, parasite or virus in culture; settings: for MIC: Escherichia coli, 12 h, read-out: Equivalent MIC
Experimental: (§2) With the determination of the sensitivity to antibiotics in mind, a suspension of 0.5 MF (Mac Farland) in physiological water was prepared from bacterial colonies selected in Petri dishes, reading being carried out on an ATB 1550 densitometer marketed by BIOMERIEUX (ATB trade mark). The suspension obtained was respectively diluted to 1/100th in the medium of the invention and Mueller-Hinton medium. VITEK cards (VITEK trade mark) containing different antibiotics at 10 concentrations were filled in vacuo into a VITEK apparatus marketed by BIOMERIEUX-VITEK. The cards were incubated for 12 hours in a VITEK incubator/reader marketed by BIOMERIEUX-VITEK. The growth kinetics were visualized and interpreted and an equivalent MIC was determined (equivalent MIC: equivalent minimum inhibitory concentration, that is to say the smallest concentration for which no bacterial growth is detected by the apparatus).
(§3) IST refers to the medium of the invention and MH signifies Mueller-Hinton medium.
(§4) S, I and R respectively signify "sensitive", "intermediate" and "resistant" with reference to the critical concentrations defined by the NCCLS (National Committee for Clinical Laboratory Standards).

P. aeruginosa = assay: Equivalent MIC of antibiotics in VITEK cards, gram-negative bacteria (Table 3); settings: for MIC: Pseudomonas aeruginosa
Experimental: as §2, §3, §4

S. marcescens = assay: as above; settings: for MIC: Serratia marcescens, 12 h
Experimental: as §2, §3, §4

[3] = tested on: enterococci and streptococci of group B; assay: Effect of lipoic acid on growth (FIG. 6); settings: 0.01 mg/l in FIG. 6
Source text: FIG. 6 illustrates the effect of lipoic acid on the growth of Enterococcus faecalis.

Serratia marcescens = assay: Effect of serine concentration on growth (FIG. 1); settings: serine concentration increased by a factor of 10 in IST medium
Source text: Curve b represents the growth with the IST medium for a concentration of serine increased by a factor of 10. Curve c represents the growth obtained with the Mueller-Hinton medium.
The qualitative and quantitative composition of amino acids was then optimized for the different species in order to obtain growth in conformity with that obtained with the reference Mueller-Hinton medium. […] The final concentrations of amino acids were defined, after having verified their importance on the final biomass, taking account of the biomass obtained in Mueller-Hinton medium.

[4] = tested on: Enterococcus hirae and Enterococcus faecium; assay: Effect of tetrapeptide on growth (FIG. 14); settings: 50 or 100 mg/l of peptide in FIG. 14
Experimental: Curve a corresponds to the results obtained with the medium of the invention without addition of the abovementioned peptide, nor addition of constituent free amino acids of this peptide. Curve b illustrates the results obtained with the addition of amino acids Ala, Gly, Ser, GLu respectively at concentrations of 11, 9, 12.5 and 17.5 mg/l. […] Curve d corresponds to the bacterial growth obtained after addition to the medium of 50 mg/l of the peptide. Curve e illustrates the results obtained after addition of 100 mg/l of the same peptide.
Among the peptides tested, only those showing size a less than or equal to 15 amino acids cause a strong increase in the growth.

staphylococci = assay: Effect of ethyl oxaloacetate on growth (FIG. 8); settings: 5 mg/l in FIG. 8
Source text: Ethyl oxaloacetate is described for its stimulatory effect on the growth of numerous species (Pelczar M. J. and Brown J. H. (1951) Synthetic culture media for reference use in dairy bacteriology, J. Milk Food Technol., 14: 90-91 and 97).

Question: Which “importance for the growth of enterococci” value (enterococci; E. faecalis, E. faecium and E. hirae, 0.005 mg/l in FIG. 5) does the source give for `Nc1nc2ncc(CNc3ccc(C(=O)N[C@@H](CCC(=O)O)C(=O)O)cc3)nc2c(=O)[nH]1` [Folic acid, folic acid] here?
Answer: The value was “importance for the growth of enterococci”.

Question: Which results are given for `O=C(O)C[C@H](O)C(=O)O` [L-malic acid]?
Answer: growth [1]: necessary for the growth of the non-saccharolytic species; growth (Pseudomonas aeruginosa): increases the growth of Pseudomonas aeruginosa

Question: Which growth [2] does the source give for `NCCCCNCCCN` [Spermidine, spermidine] here?
Answer: Its growth is “chosen according to the results, especially for the growth of Proteus, Morganella, Providencia and Serratia”.

Question: `CC(C)(O/N=C(\C(=O)N[C@@H]1C(=O)N2C(C(=O)[O-])=C(C[n+]3ccccc3)CS[C@H]12)c1csc(N)n1)C(=O)O` [ceftazidim] was tested. Which “NCCLS Category” value (E. coli; CDC 2008, IST medium) did it give?
Answer: The value was “S”.

Question: What about the “NCCLS Category” value (E. coli; CDC 2008, MH medium) of the same compound?
Answer: Its value is “S”.

Question: And the “NCCLS Category” value (E. coli; CDC 2254, IST medium)?
Answer: The value was “S”.

Question: What about the “NCCLS Category” value (E. coli; CDC 2254, MH medium) of the same compound?
Answer: Its value is “S”.

Question: And the MIC (E. coli; CDC 2008, IST medium)?
Answer: The MIC was < 0.06 mg/L.

Question: What about the MIC (E. coli; CDC 2008, MH medium) of the same compound?
Answer: The MIC was < 0.06 mg/L.

Question: What about the MIC (E. coli; CDC 2254, IST medium) of the same compound?
Answer: Its MIC is 0.5 mg/L.

Question: And the MIC (E. coli; CDC 2254, MH medium)?
Answer: The MIC was 1 mg/L.

Question: What about the “NCCLS Category” value (P. aeruginosa; AP 9, IST medium) of the same compound?
Answer: The value was “R”.

Question: What about the “NCCLS Category” value (P. aeruginosa; AP 9, MH medium) of the same compound?
Answer: Its value is “R”.

Question: What about the “NCCLS Category” value (P. aeruginosa; AP 13, IST medium) of the same compound?
Answer: The value was “S”.

Question: What about the “NCCLS Category” value (P. aeruginosa; AP 13, MH medium) of the same compound?
Answer: The value was “S”.

Question: What about the “NCCLS Category” value (P. aeruginosa; ATCC 27853, IST medium) of the same compound?
Answer: The value was “S”.

Question: What about the “NCCLS Category” value (P. aeruginosa; ATCC 27853, MH medium) of the same compound?
Answer: Its value is “S”.

Question: And the “NCCLS Category” value (P. aeruginosa; CDC 2275, IST medium)?
Answer: Its value is “S”.

Question: And the “NCCLS Category” value (P. aeruginosa; CDC 2275, MH medium)?
Answer: Its value is “S”.

Question: And the MIC (P. aeruginosa; 12 h, read-out: Equivalent MIC, AP 9, IST medium)?
Answer: The MIC was 32 mg/L.

Question: What about the MIC (P. aeruginosa; 12 h, read-out: Equivalent MIC, AP 9, MH medium) of the same compound?
Answer: Its MIC is 32 mg/L.

Question: And the MIC (P. aeruginosa; 12 h, read-out: Equivalent MIC, AP 13, IST medium)?
Answer: Its MIC is 4 mg/L.

Question: And the MIC (P. aeruginosa; 12 h, read-out: Equivalent MIC, AP 13, MH medium)?
Answer: Its MIC is 4 mg/L.

Question: And the MIC (P. aeruginosa; 12 h, read-out: Equivalent MIC, CDC 2275, IST medium)?
Answer: The MIC was 4 mg/L.

Question: And the MIC (P. aeruginosa; 12 h, read-out: Equivalent MIC, CDC 2275, MH medium)?
Answer: The MIC was 4 mg/L.

Question: What about the MIC (P. aeruginosa; ATCC27853, 12 h, read-out: Equivalent MIC, ATCC 27853, IST medium) of the same compound?
Answer: Its MIC is 1 mg/L.

Question: What about the MIC (P. aeruginosa; ATCC27853, 12 h, read-out: Equivalent MIC, ATCC 27853, MH medium) of the same compound?
Answer: Its MIC is 2 mg/L.

Question: What about the “NCCLS Category” value (S. marcescens; CDC 2102, IST medium) of the same compound?
Answer: Its value is “S”.

Question: What about the “NCCLS Category” value (S. marcescens; CDC 2102, MH medium) of the same compound?
Answer: The value was “S”.

Question: What about the “NCCLS Category” value (S. marcescens; CDC 2162, IST medium) of the same compound?
Answer: The value was “S”.

Question: What about the “NCCLS Category” value (S. marcescens; CDC 2162, MH medium) of the same compound?
Answer: Its value is “S”.

Question: And the “NCCLS Category” value (S. marcescens; CDC 2240, IST medium)?
Answer: The value was “S”.

Question: And the “NCCLS Category” value (S. marcescens; CDC 2240, MH medium)?
Answer: The value was “S”.

Question: And the MIC (S. marcescens; read-out: Equivalent MIC, CDC 2102, IST medium)?
Answer: The MIC was 0.5 mg/L.

Question: And the MIC (S. marcescens; read-out: Equivalent MIC, CDC 2102, MH medium)?
Answer: The MIC was 0.25 mg/L.

Question: What about the MIC (S. marcescens; read-out: Equivalent MIC, CDC 2162, IST medium) of the same compound?
Answer: Its MIC is 2 mg/L.

Question: What about the MIC (S. marcescens; read-out: Equivalent MIC, CDC 2162, MH medium) of the same compound?
Answer: Its MIC is 2 mg/L.

Question: And the MIC (S. marcescens; read-out: Equivalent MIC, CDC 2240, IST medium)?
Answer: Its MIC is 0.5 to 1 mg/L.

Question: And the MIC (S. marcescens; read-out: Equivalent MIC, CDC 2240, MH medium)?
Answer: Its MIC is 1 mg/L.

Question: With `O=c1[nH]cnc2nc[nH]c12` [hypoxanthine] as the compound, how does the “base requirements of the enterococci” value (enterococci) read?
Answer: Its value is “does not satisfy the base requirements of the enterococci”.

Question: How did the growth [3] turn out when `O=C(O)CCCCC1CCSS1` (stereo not drawn) [lipoic acid] was run?
Answer: Its growth is “allowing the growth of the enterococci and of the streptococci of group B to be increased to a maximum”.

Question: `N[C@@H](CO)C(=O)O` [serine] was tested. Which bacterial growth (Serratia marcescens) did it give?
Answer: The bacterial growth was “near to that obtained with Mueller-Hinton medium”.

Question: `O=c1cc[nH]c(=O)[nH]1` [uracil] was tested. Which “base requirements of the enterococci” value (enterococci) did it give?
Answer: The value was “does not satisfy the base requirements of the enterococci”.

Question: With ASDAKAYDTEV as the compound, how does the growth (enterococci) read?
Answer: Its growth is “interesting results for other strains of Enterococci”.

Question: With “Ala-Gly-Ser-Glu (AGSE) [Ala-Gly-Ser-Glu (SEQ ID NO: 1)]” as the compound, how does the growth [4] read?
Answer: The growth was “considerable increase in the growth”.

Question: EDRPPLFGQGTV was tested. Which growth (enterococci) did it give?
Answer: Its growth is “interesting results for other strains of Enterococci”.

Question: For ethyl oxaloacetate, which growth (staphylococci) is on record?
Answer: Its growth is “allowing the growth of the staphylococci to be increased without inhibiting that of the other species”.
